{
  "source": "BindingDB's records for patent US20250213705",
  "about": "(Bright Peak Therapeutics, 2025)",
  "key": {"[1]": {"molecular_target": "T1, Glutamate carboxypeptidase 2 (Homo sapiens, UniProt Q04609)", "T1 sequence (Q04609 whole entry)": "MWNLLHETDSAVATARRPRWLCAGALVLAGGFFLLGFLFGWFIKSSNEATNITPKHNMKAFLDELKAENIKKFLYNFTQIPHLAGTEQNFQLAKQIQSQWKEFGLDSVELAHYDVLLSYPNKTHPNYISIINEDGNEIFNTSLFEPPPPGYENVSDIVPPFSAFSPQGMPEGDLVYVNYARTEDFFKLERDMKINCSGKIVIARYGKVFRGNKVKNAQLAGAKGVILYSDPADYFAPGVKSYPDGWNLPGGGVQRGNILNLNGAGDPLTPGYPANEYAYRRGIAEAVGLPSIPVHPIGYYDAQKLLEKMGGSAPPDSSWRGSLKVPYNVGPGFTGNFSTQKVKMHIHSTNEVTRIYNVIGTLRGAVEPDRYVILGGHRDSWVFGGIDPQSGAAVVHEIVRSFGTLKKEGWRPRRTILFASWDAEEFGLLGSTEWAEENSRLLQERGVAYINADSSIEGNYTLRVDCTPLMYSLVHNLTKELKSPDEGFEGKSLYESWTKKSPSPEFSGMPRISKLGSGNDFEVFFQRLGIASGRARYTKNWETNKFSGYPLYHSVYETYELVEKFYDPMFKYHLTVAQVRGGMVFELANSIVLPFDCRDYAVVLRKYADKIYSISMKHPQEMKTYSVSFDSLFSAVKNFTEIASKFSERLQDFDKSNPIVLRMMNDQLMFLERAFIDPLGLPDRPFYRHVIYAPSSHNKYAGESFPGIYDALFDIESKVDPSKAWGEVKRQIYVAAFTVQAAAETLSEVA", "test": "Inhibition Assay", "procedure": "Prepare a working solution of 100 μM Amplex Red reagent containing 0.25 U/mL HRP, 0.08 U/mL L-glutamate oxidase, 0.5 U/mL 1-glutamate-pyruvate transaminase, 200 μM L-alanine and keep protected from light. […] Final concentration is 5 nM. Transfer 10 μl/well of the inhibitor solution previously prepared in a separate 96 wells/plate. […] Incubate the reactions for 30 min at 37° C., protected from light. Because the assay is continuous (not terminated), fluorescence may be measured at multiple time points to follow the kinetics of the reactions. Measure the fluorescence in a fluorescence microplate reader using excitation in the range of 530-560 nm and emission detection at ˜590 nm. Ec50s were determined with GraphPad Prism. Ki is calculated based on Cheng-Prusoff equation."}, "[2]": {"molecular_target": "T1, Glutamate carboxypeptidase 2", "test": "SPR Analysis", "procedure": "The interaction of PSMA-binding variants with human FOLH1 was measured with Surface Plasmon Resonance (SPR) technology. Biotinylated FOLH1 was captured at a concentration of 30 μg/mL onto a Streptavidin chip. […] After each cycle, needles were washed with 50% DMSO. To measure the association to the FOLH1 protein, the samples were injected with a flow rate of 30 μL/min for 90 s, followed by 1200 s buffer only to detect the dissociation. The used running buffer was 1×PBS with 0.05% Tween20 and 2% DMSO. The relative response units (RU, Y-axis) are plotted against time (s, X-axis) and analyzed in a kinetic 1:1 binding model. In a different setup, biotinylated FOLH1 was captured at a concentration of 0.8 μg/mL and the running buffer was 1×PBS with 0.05% Tween20."}},
  "data": [
    {"smiles": "CC(=O)NCCOCCOCCOCCC(=O)NC[C@H]1CC[C@H](C(=O)N[C@@H](Cc2ccc3ccccc3c2)C(=O)NCCCC[C@H](NC(=O)N[C@@H](CC(=O)O)C(=O)O)C(=O)O)CC1", "note": "[US20250213705, Compound 23]", "values": [
      {"measurement": "IC50", "setting": "[1]", "value": 7010, "unit": "nM"},
      {"measurement": "Ki", "setting": "[1]", "value": 50.1, "unit": "nM"},
      {"measurement": "Kd", "setting": "[2]", "value": 120, "unit": "nM"}
    ]},
    {"smiles": "CC(=O)NCCOCCOCCOCCC(=O)NC[C@H]1CC[C@H](C(=O)N[C@@H](Cc2ccc3ccccc3c2)C(=O)NCCCC[C@H](NC(=O)N[C@@H](CS)C(=O)O)C(=O)O)CC1", "note": "[US20250213705, Compound 28]", "values": [
      {"measurement": "IC50", "setting": "[1]", "value": 21300, "unit": "nM"},
      {"measurement": "Ki", "setting": "[1]", "value": 152, "unit": "nM"}
    ]},
    {"smiles": "CC(=O)NCCOCCOCCOCCC(=O)NC[C@H]1CC[C@H](C(=O)N[C@@H](CCCCNC(=O)C(F)(F)F)C(=O)NCCCC[C@H](NC(=O)N[C@@H](CCC(=O)O)C(=O)O)C(=O)O)CC1", "note": "[US20250213705, Compound 54]", "values": [
      {"measurement": "IC50", "setting": "[1]", "value": 89, "unit": "nM"},
      {"measurement": "Ki", "setting": "[1]", "value": 0.636, "unit": "nM"}
    ]},
    {"smiles": "CC(=O)NCCOCCOCCOCCC(=O)N(CCCOc1cc(C#N)cc(C#N)c1)CC(=O)N[C@@H](Cc1ccc2ccccc2c1)C(=O)NCCCC[C@H](NC(=O)N[C@@H](CCC(=O)O)C(=O)O)C(=O)O", "note": "[US20250213705, Compound 78]", "values": [
      {"measurement": "IC50", "setting": "[1]", "value": 6.95, "unit": "nM"},
      {"measurement": "Ki", "setting": "[1]", "value": 0.05, "unit": "nM"},
      {"measurement": "Kd", "setting": "[2]", "value": 0.43, "unit": "nM"}
    ]},
    {"smiles": "CC(=O)NCCOCCOCCOCCC(=O)N1C[C@H](NC(=O)CCCOc2cc(C#N)cc(C#N)c2)C[C@H]1C(=O)N[C@@H](Cc1ccc2ccccc2c1)C(=O)NCCCC[C@H](NC(=O)N[C@@H](CCC(=O)O)C(=O)O)C(=O)O", "note": "[US20250213705, Compound 80]", "values": [
      {"measurement": "IC50", "setting": "[1]", "value": 2.35, "unit": "nM"},
      {"measurement": "Ki", "setting": "[1]", "value": 0.017, "unit": "nM"},
      {"measurement": "Kd", "setting": "[2]", "value": 2.46, "unit": "nM"}
    ]},
    {"smiles": "CC(=O)NCCOCCOCCOCCC(=O)N[C@@H]1C[C@@H](C(=O)N[C@@H](Cc2ccc3ccccc3c2)C(=O)NCCCC[C@H](NC(=O)N[C@@H](CCC(=O)O)C(=O)O)C(=O)O)N(C(=O)COc2cc(C#N)cc(C#N)c2)C1", "note": "[US20250213705, Compound 81]", "values": [
      {"measurement": "IC50", "setting": "[1]", "value": 10.7, "unit": "nM"},
      {"measurement": "Ki", "setting": "[1]", "value": 0.076, "unit": "nM"},
      {"measurement": "Kd", "setting": "[2]", "value": 4.12, "unit": "nM"}
    ]},
    {"smiles": "CC(=O)NCCCC[C@H](NC(=O)[C@H]1CC[C@H](CNC(=O)CCOCCOCCOCCNC(C)=O)CC1)C(=O)NCCCC[C@H](NC(=O)N[C@@H](CCC(=O)O)C(=O)O)C(=O)O", "note": "[US20250213705, Compound 83]", "values": [
      {"measurement": "IC50", "setting": "[1]", "value": 2.87, "unit": "nM"},
      {"measurement": "Ki", "setting": "[1]", "value": 0.021, "unit": "nM"}
    ]},
    {"smiles": "CC(=O)NCCOCCOCCOCCC(=O)N[C@@H](Cc1cccc(C(=O)O)c1)C(=O)NCC(=O)N[C@@H](Cc1ccc2ccccc2c1)C(=O)NCCCC[C@H](NC(=O)N[C@@H](CCC(=O)O)C(=O)O)C(=O)O", "note": "[US20250213705, Compound 84]", "values": [
      {"measurement": "IC50", "setting": "[1]", "value": 5.11, "unit": "nM"},
      {"measurement": "Kd", "setting": "[2]", "value": 1.05, "unit": "nM"}
    ]},
    {"smiles": "CC(=O)NCCOCCOCCOCCC(=O)N(CCCOc1cc(C(F)(F)F)cc(C(F)(F)F)c1)CC(=O)N[C@@H](Cc1ccc2ccccc2c1)C(=O)NCCCC[C@H](NC(=O)N[C@@H](CCC(=O)O)C(=O)O)C(=O)O", "note": "[US20250213705, Compound 86]", "values": [
      {"measurement": "IC50", "setting": "[1]", "value": 59.2, "unit": "nM"},
      {"measurement": "Ki", "setting": "[1]", "value": 0.423, "unit": "nM"},
      {"measurement": "Kd", "setting": "[2]", "value": 1.17, "unit": "nM"}
    ]},
    {"smiles": "CC(=O)NCCOCCOCCOCCC(=O)N1C[C@H](NC(=O)CCCOc2cc(C#N)cc(C#N)c2)C[C@H]1C(=O)NCC(=O)N[C@@H](Cc1ccc2ccccc2c1)C(=O)NCCCC[C@H](NC(=O)N[C@@H](CCC(=O)O)C(=O)O)C(=O)O", "note": "[US20250213705, Compound 91]", "values": [
      {"measurement": "IC50", "setting": "[1]", "value": 26.1, "unit": "nM"},
      {"measurement": "Ki", "setting": "[1]", "value": 0.187, "unit": "nM"},
      {"measurement": "Kd", "setting": "[2]", "value": 3.6, "unit": "nM"}
    ]},
    {"smiles": "CC(=O)NCCOCCOCCOCCC(=O)N[C@@H]1C[C@@H](C(=O)NCC(=O)N[C@@H](Cc2ccc3ccccc3c2)C(=O)NCCCC[C@H](NC(=O)N[C@@H](CCC(=O)O)C(=O)O)C(=O)O)N(C(=O)CCCOc2cc(C#N)cc(C#N)c2)C1", "note": "[US20250213705, Compound 92]", "values": [
      {"measurement": "IC50", "setting": "[1]", "value": 79.7, "unit": "nM"},
      {"measurement": "Ki", "setting": "[1]", "value": 0.57, "unit": "nM"},
      {"measurement": "Kd", "setting": "[2]", "value": 1.01, "unit": "nM"}
    ]},
    {"smiles": "CC(=O)NCCOCCOCCOCCC(=O)N[C@@H](Cc1ccc(C(=O)O)cc1)C(=O)NCC(=O)N[C@@H](Cc1ccc2ccccc2c1)C(=O)NCCCC[C@H](NC(=O)N[C@@H](CCC(=O)O)C(=O)O)C(=O)O", "note": "[US20250213705, Compound 94]", "values": [
      {"measurement": "IC50", "setting": "[1]", "value": 1.87, "unit": "nM"},
      {"measurement": "Ki", "setting": "[1]", "value": 0.013, "unit": "nM"},
      {"measurement": "Kd", "setting": "[2]", "value": 2.33, "unit": "nM"}
    ]}
  ]
}
